Measured values published in patent US9090594B2, “PIM kinase inhibitors and preparation methods and use in medicinal manufacture thereof” (JIKAI BIOSCIENCES, INC., priority 2011, dated 2015).

These molecules were tested against T1, PIM-1 (Homo sapiens, UniProt P11309) (assay: PIM Kinase Activity Assay-IMAP Fluorescence Polarization Assay (PIM-1)). Conditions: 3 μM concentration.
T1 construct: purchased Millipore Corporation 14-573
T1 sequence (P11309 whole entry): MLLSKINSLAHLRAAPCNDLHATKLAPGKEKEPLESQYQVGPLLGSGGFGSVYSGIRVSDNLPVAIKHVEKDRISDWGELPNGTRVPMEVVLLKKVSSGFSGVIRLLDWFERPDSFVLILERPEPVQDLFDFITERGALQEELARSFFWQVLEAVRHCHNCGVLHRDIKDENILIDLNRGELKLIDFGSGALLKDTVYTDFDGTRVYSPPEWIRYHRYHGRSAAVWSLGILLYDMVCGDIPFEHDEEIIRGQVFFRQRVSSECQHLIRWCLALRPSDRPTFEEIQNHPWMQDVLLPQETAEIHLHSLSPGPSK
Type: biochemical
Experimental: In the present invention, the PIM activities of the compounds were tested by BioDuro (Building E, No. 29 Life Science Park Road, Changping District, Beijing, 102206, P.R. China). The method used for testing is PIM Kinase Activity Assay-IMAP Fluorescence Polarization Assay
PIM Kinase Activity Assay-IMAP Fluorescence Polarization Assay
PIM Is a serine/threonine protein kinase, they can phosphorylate 5-FAM labeled small peptide substrates. Fluorescence polarization is less for non-phosphorylated substrates since that can not bind to the binder (metal binding nanoparticles). On the other hand, fluorescence polarization is more for phosphorylated substrates since that can bind to the binder. The level of 5-FAM labeled small peptide substrates phosphorylation reflects the activities of PIM kinase. By measuring their ability of inhibiting PIM kinase of the compounds of the present invention, their activities of inhibiting PIM kinases can be determined.
EnVision (PerkinElmer, Waltham, Mass.)
PIM1 (Millipore Cat. #14-573) (Millipore Corporation, Billerica, Mass.)
5-FAM labeled peptide (5-FAM-RSRHSSYPAGT, AnaSpec Cat.#63801) (AnaSpec Inc., Fremont, Calif.)
IMAP FP Screening Express kit (IMAP FP Screening kit) (Molecular Devices Cat.# R8127) (Molecular Devices, Sunnyvale, Calif.)
a) 10 mM compound stock solution is diluted to appropriate concentration with 100% DMSO, then diluted 10 fold to targeted concentration with test butter to keep DMSO concentration at 10%
1 ul of compound solution and 4 ul of enzyme (PIM-1final concentration 0.025 nM, PIM-2 concentration 3 nM) is incubated at 23° C. for 15 min, 2.5 ul ATP (for PIM-1 and PIM-2, the final ATP concentrations are 30 uM and 5 uM respectively) 2.5 ul 5-FAM labeled peptide (final concentration 100 nM) was added to start the reaction. The reaction is run at 23° C. for 60 min. DMSO is used in place of compound stock solution as maximum reference and assay buffer is used in place of enzyme as minimum reference. c) add 30 ul IMAP binding reagent (containing 75% IMAP Buffer A, 25% IMAP Buffer B, 1/600 dilution of beads) to stop the reaction, incubated at room temperature for 60 min d) Measure fluorescence polarization, excitation wavelength: 485 nm, emission wavelength 530 nm. 6. Data Process IC50 values were calculated using Graphpad Prism®.
For `CC(C)c1nc(C(=O)Nc2cncnc2OC2CCNCC2)cs1` [Compound 33, 2-isopropyl-N-(4-(piperidin-4-yloxy)pyrimidin-5-yl)thiazole-4-carboxamide], the inhibition at 3 µM was 20 to 50%. With `O=C(Nc1cncnc1OC1CCNCC1)c1coc(-c2c(F)cccc2F)n1` [Compound 57, 2-(2,6-difluorophenyl)-N-(4-(piperidin-4-yloxy)pyrimidin-5-yl)oxazole-4-carboxamide] the inhibition at 3 µM was 20 to 50%. Work on `O=C(Nc1cncnc1OC1CCNCC1)c1csc(C2CCNCC2)n1` [Compound 59, 2-(piperidin-4-yl)-N-(4-(piperidin-4-yloxy)pyrimidin-5-yl)thiazole-4-carboxamide] yielded an inhibition at 3 µM of 20 to 50%. Molecule `O=C(Nc1cncnc1OC1CCNCC1)c1csc(N2CCOCC2)n1` [Compound 60, 2-morpholino-N-(4-(piperidin-4-yloxy)pyrimidin-5-yl)thiazole-4-carboxamide] has an inhibition at 3 µM of 20 to 50%. Molecule `O=C(Nc1cncnc1OC1CCNCC1)c1csc(N2CCCCC2)n1` [Compound 61, 2-(piperidin-1-yl)-N-(4-(piperidin-4-yloxy)pyrimidin-5-yl)thiazole-4-carboxamide] has an inhibition at 3 µM of 20 to 50%. For `CC(=O)Nc1nc(C(=O)Nc2cncnc2OC2CCNCC2)cs1` [Compound 62, 2-acetamido-N-(4-(piperidin-4-yloxy)pyrimidin-5-yl)thiazole-4-carboxamide], the inhibition at 3 µM was 20 to 50%. `Nc1sc(-c2c(F)cccc2F)nc1C(=O)Nc1cncnc1S(=O)(=O)CCCO` [Compound 63, 5-amino-2-(2,6-difluorophenyl)-N-(4-((3-hydroxypropyl)sulfonyl)pyrimidin-5-yl)thiazole-4-carboxamide] gave an inhibition at 3 µM of 20 to 50%.
